Results on four molecules are retold here after PubChem BioAssay (NCI).

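In this assay, cells in 96-well plates receive the compound at five concentrations for 48 hours. Endpoints are linearly interpolated between the surrounding concentrations. Here, GI50 denotes the concentration required for 50% inhibition of growth. TGI denotes the concentration required for complete inhibition of growth.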

Among the test systems are SK-MEL-28 melanoma; SF-268 CNS; SK-MEL-5 melanoma; UO-31 renal; COLO 205 colon; HCT-15 colon; HL-60(TB) leukemia; T-47D breast; IGROV1 ovarian; NCI-H522 lung.
Test in all cases: inhibition of tumour cell growth, NCI panel, 48 h

`S=C(Nc1ccc(Cl)cc1)Nc1ccc(-c2nc3ccccc3o2)cc1`: the GI50 in the assay with SK-MEL-28 melanoma was 20.6 µM; with SF-268 CNS, 16.5 µM; in the assay with SK-MEL-5 melanoma, 14 µM; in the assay with UO-31 renal, 11.6 µM; in the assay with COLO 205 colon, 19.9 µM; in the assay with HCT-15 colon, 10.9 µM. Further, the GI50 was 32.2 µM in the assay on HL-60(TB) leukemia, 16.8 µM with T-47D breast, 10.9 µM with IGROV1 ovarian and 11 µM with NCI-H522 lung. In addition, the TGI in the assay with SK-MEL-28 melanoma is 43.2 µM; in the assay on SF-268 CNS, 76.7 µM; in the assay with SK-MEL-5 melanoma it was 32.2 µM; in the assay with UO-31 renal it was 26.1 µM; in the assay with COLO 205 colon, more than 100 µM; in the assay with HCT-15 colon it was 25.7 µM. Also, the TGI is more than 100 µM in the assay with HL-60(TB) leukemia, 82.8 µM with T-47D breast, 37.4 µM with IGROV1 ovarian and 26.7 µM in the assay with NCI-H522 lung.

For `COC(=O)NC1(NC(=O)OC)NC(=O)c2cc(OC)c(OC)c(OC)c2N1`, the TGI with SK-MEL-28 melanoma, with SF-268 CNS, in the assay with SK-MEL-5 melanoma, in the assay with UO-31 renal, in the assay with COLO 205 colon and with HCT-15 colon was more than 100 µM in each case. In addition, the TGI in the assay with HL-60(TB) leukemia was 87.7 µM; with T-47D breast, more than 100 µM; in the assay with IGROV1 ovarian, more than 100 µM; with NCI-H522 lung, 41.5 µM.

For the molecule `CC(=O)N1c2ccccc2NC2=C(C(=O)N(Cc3ccccc3)C2(C)C)C1c1ccco1` (stereo not given), the GI50 in the assay on SK-MEL-28 melanoma is more than 25 µM; in the assay with SF-268 CNS it was 1.28 µM; in the assay on SK-MEL-5 melanoma, 0.871 µM; in the assay on UO-31 renal, 1.23 µM; in the assay on COLO 205 colon, 0.742 µM; with HCT-15 colon, 1.2 µM. The GI50 with HL-60(TB) leukemia is 0.103 µM; with T-47D breast, 4.88 µM; in the assay on IGROV1 ovarian, 0.893 µM; in the assay with NCI-H522 lung it was 0.871 µM. The TGI in the assay on SK-MEL-28 melanoma, in the assay on SF-268 CNS, in the assay on SK-MEL-5 melanoma, in the assay on UO-31 renal, in the assay with COLO 205 colon and in the assay with HCT-15 colon was more than 25 µM in each case. The TGI was 0.651 µM with HL-60(TB) leukemia, more than 25 µM in the assay on T-47D breast, more than 25 µM in the assay with IGROV1 ovarian and more than 25 µM in the assay on NCI-H522 lung.

Take `Fc1ccc(-c2ncn(C3CCNCC3)c2-c2ccnc(Oc3ccc(F)c(F)c3)n2)cc1`: the GI50 with SK-MEL-28 melanoma was 4.57 µM; in the assay on SF-268 CNS, 12 µM; with SK-MEL-5 melanoma, 3.55 µM; in the assay with UO-31 renal, 6.25 µM; in the assay with COLO 205 colon, 4.55 µM; with HCT-15 colon, 5.64 µM. In addition, the GI50 with HL-60(TB) leukemia was 10.6 µM; in the assay with T-47D breast, 4.7 µM; with IGROV1 ovarian, 8.61 µM; in the assay on NCI-H522 lung it was 5.52 µM. The TGI in the assay on SK-MEL-28 melanoma was 8.79 µM; in the assay on SF-268 CNS it was more than 25 µM; with SK-MEL-5 melanoma, 6.83 µM; in the assay with UO-31 renal, more than 25 µM; in the assay on COLO 205 colon, 8.47 µM; in the assay on HCT-15 colon, 15.6 µM. For the same molecule, the TGI with HL-60(TB) leukemia was 24.6 µM; in the assay on T-47D breast, 10.2 µM; in the assay on IGROV1 ovarian, more than 22.6 µM; in the assay on NCI-H522 lung, 10.5 µM.
